These are literature values, as cited in patent publication US9242010B2, “Living copolymer-protein/peptide hybrids for biomedical applications” (Research Foundation of The City University of New York, priority 2008, dated 2016).

Each structure is given as a SMILES string. A value given as a limit tells only on which side of the number the result lay.

The test system of one data set is avidin/streptavidin. To be noted: interaction of avidin/streptavidin with biotin.
The conditions of data set [1]: background statement.

Consider `O=C(O)CCCC[C@@H]1SC[C@@H]2NC(=O)N[C@@H]21` [biotin], for which the Ka with avidin/streptavidin was > 10^14.
Turning to `COc1cc(/C=C/C(=O)CC(=O)/C=C/c2ccc(O)c(OC)c2)ccc1O` [curcumin, (1E,6E)-1,7-bis(4-hydroxy-3-methoxyphenyl)hepta-1,6-diene 3,5-dione], in data set [1], the “water and plasma solubility” value is listed as “poor”.
On to `CC(=O)O[C@H]1C(=O)[C@@]2(C)[C@H]([C@H](OC(=O)c3ccccc3)[C@]3(O)C[C@H](OC(=O)[C@H](O)[C@@H](NC(=O)c4ccccc4)c4ccccc4)C(C)=C1C3(C)C)[C@]1(OC(C)=O)CO[C@@H]1C[C@@H]2O` [taxol], for which the water solubility entry in data set [1] is “not water soluble”.
